# Counter-ions that a name gives are not always drawn. Like-named read-outs stand apart in the source and are kept apart here.
# Tests used:
# [1] = Hygroscopicity and rate of solubility of salt forms of compound of formula (1); assay type: physicochemical
# [2] = antitumour agent; cited from earlier work
# [3] = system: HCT116 cell line; assay: Anti-proliferative activity, Alamar Blue assay; assay type: cell-based; conditions: Homo sapiens, HCT-116, 72 h, read-out: IC50 against the HCT116 cell line
# Description: The anti-proliferative activities of compounds for use in the combinations of the invention can be determined by measuring the ability of the compounds to inhibition of cell growth in a number of cell lines such as the human colon cancer cell line HCT116. […] The method is based on the ability of viable cells to reduce resazurin to its fluorescent product resorufin. […] The number of viable cells is determined by Alamar Blue assay as before. Cell lines can be obtained from the ECACC (European Collection of cell Cultures).
# [4] = target: T1, Human Hsp90α N-terminal domain (Homo sapiens, UniProt P07900); assay: Isothermal titration calorimetry (ITC) binding to Hsp90; conditions: pH 7.4
# T1 construct: purification of the Human Hsp90α N-terminal domain were performed according to published methods; made in house
# Description: The ability of the compounds for use in the combinations of the invention to bind to human Hsp90 proteins was determined using isothermal titration calorimetry.
# Isothermal titration calorimetry (ITC) experiments were performed with a VP-ITC titration calorimeter (Microcal Inc., Northampton, Mass., USA). […] All solutions were filtered and degassed prior to a titration being carried out. The enthalpy change resulting from each injection of ligand was obtained through integration of the calorimetric signal. Data were analysed using Origin 7.0 (Microcal Software Inc., Northampton, Mass.). Heats of dilution were estimated using the final injections of each individual titration and subtracted before data fitting. Different ITC experimental formats were employed in order to obtain compound dissociation constants (Kd's) over a wide range of affinities. […] In this type of experiment the stoichiometry parameter (N) was locked at 1 for data fitting.
# [5] = Solid-state stability of crystalline L-lactate forms of compound of formula (1); assay type: physicochemical; conditions: lactic acid salts of compound of formula (1)
# Text: The term ‘stable’ or ‘stability’ as used herein includes chemical stability and solid state (physical) stability. The term ‘chemical stability’ means that the compound can be stored in an isolated form, or in the form of a formulation in which it is provided in admixture with for example, pharmaceutically acceptable carriers, diluents or adjuvants as described herein, under normal storage conditions, with little or no chemical degradation or decomposition’ for example for a period of six months or more, more usually twelve months or more, for example eighteen months or more. ‘Solid-state stability’ means the compound can be stored in an isolated solid form, or the form of a solid formulation in which it is provided in admixture with, for example, pharmaceutically acceptable carriers, diluents or adjuvants as described herein, under normal storage conditions, with little or no solid-state transformation (e.g. hydration, dehydration, solvatisation, desolvatisation, crystallisation, recrystallisation or solid-state phase transition).
# [6] = assay type: physicochemical
# Text: Samples for X-ray powder diffraction (XRPD) data collection were gently ground by marble mortar and loaded into a crystallographic capillary (from Hampton Research, Quartz or Glass Type 10, 0.4 or 0.7 mm diameter). Diffraction patterns were collected at room temperature using CuKα radiation (λ=1.5418 Å) from a Rigaku rotating anode RU3HR, Osmic blue confocal optics, ¼ c goniometer and a Rigaku HTC image plate detector. 2D Images were collected while spinning φ axis with a detector to crystal distance of 250 mm. Data collection was controlled by CrystalClear software and 2D images were converted to 1D plot (2θ vs. Intensity) by Datasqueeze (intensity averaged over the azimuthal angle 0<χ<360° for 2θ range 3-30° in 0.02° steps). In house program AstexXRP was used for manipulation and visualisation of 1D XRPD patterns.
# It is nominally a tri-hydrate because there are 3 crystal water positions in the asymmetric unit, but they are not 100% occupied at room temperature and laboratory humidity. A saturated solution of form FL1 in methanol:water 9:1 was prepared at room temperature. Slow precipitation with approximately 4 volumes of acetone gave form FL2 which is stable in air.
# A saturated solution of form FL1 in THF was prepared at room temperature. Slow precipitation with approximately 4 volumes of heptane gave form FL3.
# [7] = system: PKA; conditions: data published 2002; read-out: IC50, inhibition of PKA activity; cited from earlier work
# [8] = system: OVCAR-3 tumour cells; conditions: OVCAR-3 tumour cells in which PKB is amplified; concentrations of 50 and 100 microM; cited from earlier work
# [9] = system: PKC; conditions: data published 2002; read-out: IC50, inhibition of PKC activity; cited from earlier work
# [10] = system: PKG; conditions: data published 2002; read-out: IC50, inhibition of PKG activity; cited from earlier work
# [11] = mice; doses 10 times more than were needed for antitumour activity; cited from earlier work
# [12] = system: Acute Promyelocytic Leukemia (APL); conditions: cited from earlier work
# [13] = system: P-glycoprotein-overexpressing subline of leukemic cell line CCRF-CEM; conditions: P-glycoprotein-overexpressing subline of CCRF-CEM (Chou et al. 1998); cited from earlier work
# [14] = clinical studies; cited from earlier work
compound,measurement,setting,value
"CC(C)c1cc(C(=O)N2Cc3ccc(CN4CCN(C)CC4)cc3C2)c(O)cc1O [(2,4-dihydroxy-5-isopropyl-phenyl)-[5-(4-methyl-piperazin-1-ylmethyl)-1,3-dihydro-isoindol-2-yl]-methanone L-lactate salt]",hygroscopicity,[1],non-hygroscopic
same,rate of solubility,"[1]; compared with free base and other salts tested (hydrochloric acid, sulphuric acid)",better rate of solubility than the free base and other salts tested
CCN[C@H]1CO[C@@H](O[C@H]2[C@H](O[C@H]3C#C/C=C\C#C[C@]4(O)CC(=O)C(NC(=O)OC)=C3/C4=C\CSSSC)O[C@H](C)[C@@H](NO[C@H]3C[C@H](O)[C@H](SC(=O)c4c(C)c(I)c(O[C@@H]5O[C@@H](C)[C@H](O)[C@@H](OC)[C@H]5O)c(OC)c4OC)[C@@H](C)O3)[C@@H]2O)C[C@@H]1OC [Calicheamicin],potency relative to adriamycin,[2],"over 1,000 times"
"CC(C)c1cc(C(=O)N2Cc3ccccc3C2)c(O)cc1O [Example 5, (1,3-Dihydro-isoindol-2-yl)-(2,4-dihydroxy-5-isopropyl-phenyl)-methanone]",IC50,[3],< 1 µM
"CC(C)c1cc(C(=O)N2Cc3ccc(C(=O)N4CCNCC4)cc3C2)c(O)cc1O [Example 54, (2,4-dihydroxy-5-isopropyl-phenyl)-[5-(piperazine-1-carbonyl)-1,3-dihydro-isoindol-2-yl]-methanone hydrochloride]",IC50,[3],< 1 µM
"CC(C)c1cc(C(=O)N2Cc3ccc(CN4CCN(C)CC4)cc3C2)c(O)cc1O [Example 55, (2,4-dihydroxy-5-isopropyl-phenyl)-[5-(4-methyl-piperazin-1-ylmethyl)-1,3-dihydro-isoindol-2-yl]-methanone]",Kd,[4],< 0.1 µM
"CC(C)c1cc(C(=O)N2Cc3ccc(CN4CCN(C)CC4)cc3C2)c(O)cc1O [FL1, (2,4-dihydroxy-5-isopropyl-phenyl)-[5-(4-methyl-piperazin-1-ylmethyl)-1,3-dihydro-isoindol-2-yl]-methanoneL-lactate]",stability of crystalline form,[5],stable
same,stability of crystal form at 40° C. and 75% RH,[6],stable in air and at 40 °C and 75% RH for at least one month
same,stability of crystal form in air,[6],stable in air
"CC(C)c1cc(C(=O)N2Cc3ccc(CN4CCN(C)CC4)cc3C2)c(O)cc1O [FL2, (2,4-dihydroxy-5-isopropyl-phenyl)-[5-(4-methyl-piperazin-1-ylmethyl)-1,3-dihydro-isoindol-2-yl]-methanoneL-lactate]",stability of crystalline form,[5],stable
same,stability of crystal form in air,[6],stable in air
"CC(C)c1cc(C(=O)N2Cc3ccc(CN4CCN(C)CC4)cc3C2)c(O)cc1O [FL3, (2,4-dihydroxy-5-isopropyl-phenyl)-[5-(4-methyl-piperazin-1-ylmethyl)-1,3-dihydro-isoindol-2-yl]-methanoneL-lactate]",stability of crystalline form,[5],unstable
same,stability of crystal form in air,[6]; 2 days,transforms in air into form FL1
O=S(=O)(NCCNCC=C(c1ccccc1)c1ccccc1)c1cccc2cnccc12 [NL-71-101],IC50,[7],9 µM
same,induction of apoptosis,[8],induced apoptosis
same,IC50,[9],104 µM
same,IC50,[10],36 µM
CCOC(=O)c1ccc2[nH]c3c(OC)c4[nH]c5ccc(C(=O)OCC)cc5c4cc3c2c1 [SR-13668],adverse effects in vivo,[11],no adverse effects
"CC1=C(/C=C/C(C)=C/C=C/C(C)=C/C(=O)O)C(C)(C)CCC1 [Tretinoin, all-trans retinoic acid]",remissions induced in APL patients,[12],64-100%
C/C1=C/C[C@@H](/C(C)=C/c2csc(C)n2)OC(=O)C[C@H](O)C(C)(C)C(=O)[C@H](C)[C@@H](O)[C@@H](C)CCC1 [desoxyepothilone B],IC50,[13],0.017 µM
Perifosine [KRX-0401],half-life,[14],~100 h

# From patent US8916552B2, “Pharmaceutical combinations” (Astex Therapeutics Limited, priority 2006, dated 2014)
